Tests used:
Type in all cases: cell-based
HuH7 = assay: Proliferation assay (CellTiter-Glo luminescent cell viability assay), HuH7; conditions: Huh-7; human hepatoma HuH7; 48 hours incubation; 10% (v/v) FCS; compounds 0 to 20 µM; read-out: EC50 (effective concentration reducing cell proliferation by 50%), inhibition of HuH7 proliferation
Description: (§1) The assay is based on the relation that the ATP content is directly proportional to the number of cells present in the culture. The CellTiter-Glo® assay is performed to measure the proliferation rate of human hepatoma (HuH7, PLC/PRF/5, Hep3B, SK-Hep1), human hepatoblastoma (HepG2), human colon carcinoma (CX-2), human breast cancer (SK-Br-3), human […] (HeLa) and human pancreatic carcinoma (DAN-G) cell lines (see Example 2). […] Further, HepG2 and Hep3B are inhibited with an EC50 of 0.9 and 0.3 µM, respectively.
To determine the inhibition of cell proliferation a luminescent cell viability assay (CellTiter-Glo®; Promega, Madison, USA) is implemented. The assay is based on the relation that the ATP content is directly proportional to the number of cells present in the culture, see Technical Bulletin No. 228 "CellTiter-Glo® Luminescent Cell viability Assay", Revised 2/04. Promeg, Madison, USA. The CellTiter-Glo® assay is performed to measure the proliferation rate of human hepatoma (HuH7, PLC/PRF/5, Hep3B, SK-Hep1), human hepatoblastoma (HepG2), human colon carcinoma (CX-2), human breast cancer (SK-Br-3), human […] (HeLa) and human pancreatic carcinoma (DAN-G) cell lines. 3000 viable cells (viability ≥ 90%) are seeded in opaque-walled 96-well plates and incubated for 24 hours in DMEM, supplemented with 2 mM glutamin. Cell proliferation is stimulated by addition of FCS to a final concentration of 10% (v/v). Simultaneously the compounds I to XVII (see Table 1 A to 1D and 2) are added in a concentration range of 0 to 20 µM. Triplicates are measured for each concentration. Cells and compounds (see Table 1 A to 1D, and 2) are incubated for a period of 48 hours in a volume of 140 µl cell culture medium (10% (v/v) FCS, 2 mM Glutamin, DMEM). The compounds are solved in 60% to 100% (v/v) DMSO at a concentration of 2 mM. The final DMSO concentration under assay conditions never exceeded 1% (v/v). Throughout the assay cells are kept in a humidified incubator (95% rH) at 37°C and 5% CO2. The final cell number is determined after 48 hour of incubation. Therefore 140 µl CellTiter-Glo®Reagent is added in each well. The contents are mixed on an orbital shaker for 2 minutes at room temperature. After subsequent incubation for additional 10 minutes at room temperature the luminescence signal was recorded within 30 min. EC50 values are calculated using the four-parametric Hill equation (Sigma Plot).
Control values are: (1) 10% (v/v) FCS, 2 mM Glutamin, DMEM -> maximum cell number and (2) 2 mM Glutamin, DMEM -> initial cell number.

DAN-G = assay: Proliferation assay (CellTiter-Glo luminescent cell viability assay), DAN-G; conditions: human pancreatic carcinoma DAN-G; 48 hours incubation; 10% (v/v) FCS; read-out: EC50 (effective concentration reducing cell proliferation by 50%), inhibition of DAN-G proliferation
Description: as §1
(§2) To determine the inhibition of cell proliferation a luminescent cell viability assay (CellTiter-Glo®; Promega, Madison, USA) is implemented. The assay is based on the relation that the ATP content is directly proportional to the number of cells present in the culture, see Technical Bulletin No. 228 "CellTiter-Glo® Luminescent Cell viability Assay", Revised 2/04. Promeg, Madison, USA. […] Triplicates are measured for each concentration. […] The final cell number is determined after 48 hour of incubation. […] After subsequent incubation for additional 10 minutes at room temperature the luminescence signal was recorded within 30 min. EC50 values are calculated using the four-parametric Hill equation (Sigma Plot). […]

Hep3B = assay: Proliferation assay (CellTiter-Glo luminescent cell viability assay), Hep3B; conditions: human hepatoma Hep3B; 48 hours incubation; 10% (v/v) FCS; read-out: EC50, inhibition of Hep3B proliferation
Description: as §1, §2

CX-2 = assay: Proliferation assay (CellTiter-Glo luminescent cell viability assay), CX-2; conditions: human colon carcinoma CX-2; 48 hours incubation; 10% (v/v) FCS; read-out: EC50 (effective concentration reducing cell proliferation by 50%), inhibition of CX-2 proliferation
Description: as §1, §2

HepG2 = assay: Proliferation assay (CellTiter-Glo luminescent cell viability assay), HepG2; conditions: human hepatoblastoma HepG2; 48 hours incubation; 10% (v/v) FCS; read-out: EC50, inhibition of HepG2 proliferation
Description: as §1, §2

HeLa = assay: Proliferation assay (CellTiter-Glo luminescent cell viability assay), HeLa; conditions: HeLa (printed as human ovarian carcinoma); 48 hours incubation; 10% (v/v) FCS; read-out: EC50 (effective concentration reducing cell proliferation by 50%), inhibition of HeLa proliferation
Description: as §1, §2

Sk-Br-3 = assay: Proliferation assay (CellTiter-Glo luminescent cell viability assay), SK-Br-3; conditions: human breast cancer SK-Br-3; 48 hours incubation; 10% (v/v) FCS; read-out: EC50 (effective concentration reducing cell proliferation by 50%), inhibition of SK-Br-3 proliferation
Description: as §1, §2

| Compound | EC50 (HuH7) | also measured |
| --- | --- | --- |
| O=C(c1csc(-c2cnccn2)n1)N1CCC(c2nc(-c3ccc4c(c3)OCCO4)cs2)CC1 [XIII] | 6 µM |  |
| CCOC(=O)/C=C/C(=O)N1CCC(c2nc(-c3ccc(Cl)c([N+](=O)[O-])c3)cs2)CC1 [XVII] | 0.63 µM |  |
| O=C(C1COc2ccccc2O1)N1CCC(c2nc(-c3ccc4c(c3)OCCO4)cs2)CC1 (stereo not drawn) [IX] | 3.93 µM |  |
| O=C1CC(C(=O)N2CCC(c3nc(-c4ccc5c(c4)OCCO5)cs3)CC2)CN1Cc1cccs1 (stereo not drawn) [XIV] | 29 µM |  |
| O=C(/C=C/c1ccc2c(c1)OCO2)N1CCC(c2nc(-c3ccc4c(c3)OCCO4)cs2)CC1 [Compound I, E-3-{4-[4-(3,4-ethylendioxphenyl)-thiazol-2-yl]-piperidin-1-yl}-1-(3,4-methylendioxyphenyl)-3-oxo-prop-1-ene] | 0.33 µM | EC50 (DAN-G): 4.69 µM; EC50 (Hep3B): 0.3 µM; EC50 (CX-2): 19.1 µM; EC50 (HepG2): 0.9 µM; EC50 (HeLa): 14.8 µM; EC50 (Sk-Br-3): 10.8 µM |
| CCN(CC)c1ccc(-c2csc(C3CCN(Cc4ccc(N(CCC#N)CCC#N)cc4)CC3)n2)cc1 [XII] | 5.76 µM |  |
| CCOC(=O)CNC(=O)N1CCC(c2nc(-c3cccc(Br)c3)cs2)CC1 [VIII] | 1.89 µM |  |
| CCOC(=O)c1cc(-c2csc(C3CCN(C(=O)/C(C)=C/c4cc(OC)c(OC)cc4OC)CC3)n2)on1 [II] | 12.4 µM |  |
| O=C(c1ccccc1C[S+]([O-])c1ccccc1)N1CCC(c2nc(-c3ccc4c(c3)OCCO4)cs2)CC1 (stereo not drawn) [XI] | 3.35 µM |  |
| CCOC(=O)c1cc(-c2csc(C3CCN(C(=O)C(Cc4ccccc4F)NC(C)=O)CC3)n2)on1 (stereo not drawn) [III] | 1.61 µM |  |
| O=C(CCCc1nc2ccccc2[nH]1)N1CCC(c2nc(-c3cccc(Br)c3)cs2)CC1 [X] | 1.93 µM |  |
| O=C(c1cccnc1OCC(F)(F)F)N1CCC(c2nc(-c3ccc4c(c3)OCCO4)cs2)CC1 [VII] | 6.2 µM |  |
| CCOC(=O)c1cc(-c2csc(C3CCN(C(=O)/C=C/c4ccc5c(c4)OCO5)CC3)n2)on1 [VI] | 20.7 µM |  |
| COC(=O)C(NC(=O)N1CCC(c2nc(-c3ccc4c(c3)OCCO4)cs2)CC1)C(C)C (stereo not drawn) [IV] | 5.02 µM |  |
| O=C(C1N=Nc2ccccc21)N1CCC(c2nc(-c3ccc4c(c3)OCCO4)cs2)CC1 (stereo not drawn) [XVI] | 24.9 µM |  |
| Cc1nn(C)c(Cl)c1/C=C/C(=O)N1CCC(c2nc(-c3ccc4c(c3)OCCO4)cs2)CC1 [V] | 10.7 µM | EC50 (DAN-G): 11.1 µM; EC50 (CX-2): > 20 µM; EC50 (HeLa): 18.7 µM; EC50 (Sk-Br-3): > 20 µM |
| Cc1cc(Cl)ccc1NC(=O)COCC(=O)N1CCC(c2nc(-c3ccc4c(c3)OCCO4)cs2)CC1 [XV] | 4.94 µM |  |

Source: patent EP1832585A1, “Thiazole-piperidine derivatives for treatment of hyperproliferative diseases” (Oridis Biomed Forschungs- und Entwicklungs GmbH, priority 2006, dated 2007)
